We go through 2 molecules from patent publication US20110098554A1, “Monitoring of convection enhanced drug delivery” (priority 2004, published 2011).

For data set [1], the system named is striatum of normal Sprague-Dawley (SD) rats. The data set is described as follows: Cytotoxic tissue response to CED by T2-weighted and diffusion-weighted MRI and histology. As to the method:
The resultant solution was infused into the striatum of normal Sprague-Dawley (SD) rats (males, 250-300 grams). T1-weighted MR images were acquired immediately post treatment to assess the extent of convection. Additionally, T2-weighted and diffusion-weighted MR images were acquired 24 hours post treatment to assess the response of the tissue and its correlation to the extent of convection.
Under full anesthesia, a midline scalp incision was made to identify the bregma. A 1 mm burr hole was made in the right region of the skull, 3 mm anterior and 2 mm lateral to the bregma. A 33-gauge needle attached to a 1000 μl syringe (Gastight; Hamilton) was placed stereotactically 5.5 mm deep into the striatum. The infusion was performed using a BASI syringe pump at a rate of 1 μl/min for a duration ranging from […].
In order to obtain a wide range in volumes of distribution, the infusion times were varied between 17 to 60 minutes. 13 rats were treated with Carboplatin (4 mg/ml, 17 minutes infusion). […]
The volume (in cm^3) of the composition distribution was calculated from the T1-weighted MR images acquired immediately post CED treatment. […] The number of pixels in the ROIs was counted and multiplying by the volume of a single pixel. […]

In another data set the test system is malignant gliomas. The settings on record: first 24-48 hours post intratumoral CED, patients with recurrent malignant brain tumors; cited from earlier work.
In another data set the test system is C26 colon cancer tumors. The data set is described as follows: CED of high viscosity toxic infusates in C26 tumors in mice thigh, MRI. The class given is in vivo, balb-c mice. The protocol: Five balb-c mice, bearing large (over 2 cm in diameter) C26 colon cancer tumors in the thigh, were treated with CED of high viscosity toxic infusates. […] Two mice were treated with a high concentration combination of Ethanol and Cremaphore (150 μl Ethanol and 150 μl Cremaphore diluted with Saline to 1 ml) at infusion rate of 4 μl/min for 105 minutes.
Infusates were mixed with Gd (1:70) prior to treatment. MR images were acquired immediately post treatment to assess the distribution of the drug within the tumor.

Structures are written as SMILES.

For the molecule `N.N.O=C([O-])C1(C(=O)[O-])CCC1.[Pt+2]` [Carboplatin], the “enhancement in diffusion-weighted MR images” value in data set [1] (24 hours post treatment, cases of efficient convection) was “significant enhancement”.
On to `CC(=O)O[C@H]1C(=O)[C@@]2(C)[C@H]([C@H](OC(=O)c3ccccc3)[C@]3(O)C[C@H](OC(=O)[C@H](O)[C@@H](NC(=O)c4ccccc4)c4ccccc4)C(C)=C1C3(C)C)[C@]1(OC(C)=O)CO[C@@H]1C[C@@H]2O` [Taxol®, Paclitaxel], for which the “water diffusion changes on diffusion-weighted MRI” value with malignant gliomas is reported as “clear changes”. Moreover, the “tumor tissue response (T2 MRI 24 hours post treatment)” value in the data set with C26 colon cancer tumors (mouse of FIGS. 16, efficient CED) was “complete necrosis”; with C26 colon cancer tumors (mouse of FIGS. 17, inefficient CED), “no significant change in the tumor”. In data set [1] (rat, in vivo), the “histology of en block-resected lesion” value is listed as “Severe damage covering most of the striatum”.
